The values that follow come from PMC10218303, “Novel Polymyxin-Inspired Peptidomimetics Targeting the SARS-CoV-2 Spike:hACE2 Interface” (International Journal of Molecular Sciences, 2023).

Read-outs that look alike come from different tables or passages of the source.

For data set [1], the system named is SARS-CoV-2 (strain 20A.EU2). Description: microbe, parasite or virus in culture. The note with it: Severe acute respiratory syndrome coronavirus 2, 96 h, read-out: IC50 20A.EU2.
Data set [2] can be described thus: in vitro. The note with it: human.
Data set [3] can be described thus: in vitro. The note with it: human. This is another data set of the same source.
Data set [4] has as its system SARS-CoV-2 (strain Delta). As to the kind of experiment: microbe, parasite or virus in culture. To be noted: Severe acute respiratory syndrome coronavirus 2, 120 h, read-out: IC50 Delta.
In data set [5] the test system is SARS-CoV-2 (strain 20A.EU2). The note with it: strain 20A.EU2, 2 h.
Data set [6] concerns SARS-CoV-2 (strain Delta). To be noted: strain Delta, 2 h.

Take `CCC(CC)COC(=O)[C@H](C)N[P@](=O)(OC[C@H]1O[C@@](C#N)(c2ccc3c(N)ncnn23)[C@H](O)[C@@H]1O)Oc1ccccc1` [remdesivir, reference compound]: in data set [1], the IC50 is 0.0044 µM. This compound showed a CC50 in the data set “in vitro [2]” of 43 µM.

Regarding `N#C[C@@]1(c2ccc3c(N)ncnn23)O[C@H](CO)[C@@H](O)[C@H]1O` [GS-441524, reference compound], in “in vitro [3]”, the CC50 was over 40 µM. The IC50 in data set [4] came to 2.3 µM.

In the case of `CC(=O)N[C@@H](CCC(=O)O)C(=O)N[C@H](C(=O)N[C@@H](CCN)C(=O)N[C@H]1CCNC(=O)[C@H](Cn2cc(CC(=O)N[C@@H](CCN)C(=O)N[C@H]3CCNC(=O)[C@H]([C@@H](C)O)NC(=O)[C@H](CCN)NC(=O)[C@H](Cc4c[nH]c5ccccc45)NC(=O)[C@H](CC(C)C)NC(=O)[C@@H](Cc4ccccc4)NC(=O)[C@H](Cc4c[nH]c5ccccc45)NC3=O)nn2)NC(=O)[C@H](CCN)NC(=O)[C@H](CCN)NC(=O)[C@H](CC(C)C)NC(=O)[C@@H](Cc2ccccc2)NC(=O)[C@H](Cc2ccc(O)cc2)NC1=O)[C@@H](C)O` [dimer 10], the IC50 in data set [5] and in data set [6] was over 50 µM in each case. The CC50 in “in vitro [3]” and in the data set “in vitro [2]” was over 50 µM throughout.
